The target of this assay is T1, rat liver microsomal HMGCoA reductase (Rattus norvegicus, UniProt P51639).
T1 construct: rat liver microsomal HMGCoA reductase; from tissue; host or cells: rat liver microsomes
T1 sequence (P51639 1-887): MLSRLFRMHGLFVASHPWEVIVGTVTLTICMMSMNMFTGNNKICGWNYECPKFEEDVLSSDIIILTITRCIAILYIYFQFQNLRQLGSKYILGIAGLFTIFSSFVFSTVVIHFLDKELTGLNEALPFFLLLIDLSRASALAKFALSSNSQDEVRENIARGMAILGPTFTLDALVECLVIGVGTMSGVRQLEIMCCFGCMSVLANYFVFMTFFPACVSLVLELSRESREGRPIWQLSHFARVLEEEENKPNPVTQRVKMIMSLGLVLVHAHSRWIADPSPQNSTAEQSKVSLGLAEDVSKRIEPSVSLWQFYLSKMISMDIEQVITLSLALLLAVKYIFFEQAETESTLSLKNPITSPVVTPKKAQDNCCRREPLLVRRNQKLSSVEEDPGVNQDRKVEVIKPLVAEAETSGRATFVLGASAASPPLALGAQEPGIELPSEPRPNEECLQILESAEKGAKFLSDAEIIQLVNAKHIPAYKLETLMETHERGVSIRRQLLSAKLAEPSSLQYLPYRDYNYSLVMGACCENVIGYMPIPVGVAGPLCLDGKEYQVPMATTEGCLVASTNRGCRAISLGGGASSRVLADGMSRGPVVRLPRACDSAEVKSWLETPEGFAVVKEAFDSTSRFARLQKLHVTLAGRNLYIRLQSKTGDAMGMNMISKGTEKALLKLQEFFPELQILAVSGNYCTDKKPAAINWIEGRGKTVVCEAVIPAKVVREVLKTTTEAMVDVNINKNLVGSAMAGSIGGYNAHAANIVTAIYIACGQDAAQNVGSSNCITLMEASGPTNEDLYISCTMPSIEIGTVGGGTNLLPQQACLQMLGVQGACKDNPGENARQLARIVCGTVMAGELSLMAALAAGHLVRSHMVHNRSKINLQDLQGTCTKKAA
As to the kind of experiment: in vitro inhibition of rat liver microsomal HMGCoA reductase. Type of assay: biochemical. Particulars: read-out: % inhibition (HMG CoA reductase); for inhibition at 50 µM: at 5.0×10^-5 M. The protocol:
The in vitro inhibitory activity of the present compounds is evaluated using rat liver microsomal HMGCoA reductase as described by Edwards, et al. J. Biol. Chem. 249, 2891 (1974). The IC50 is defined as the concentration required to inhibit the enzyme by 50% of control.
HMG derivaties are added to a preincubation mixture consisting of 0.1 M K PO4, PH7.2, 0.02 M glucose-6-PO4, 2.5 mM NADP, 0.7 units of glucose-6-PO4 dehydrogenase, 5 mM dithiothreitol, 50 mM mevalonic acid and approximately 50 μg of microsomal protein. Triplicate samples are preincubated for 15 min. at 37° C. in a volume of 1 ml. Incubation is started with 40 μM 14C-HMGCoA (0.1 ml) run for 15 min. at 37° C. and stopped with 5 N HCl (0.1 ml). Assay tubes are allowed to set for at least 30 min., then approximately 50,000 dpm of ^3 H-mevalonic acid are added to provide for extraction efficiency. Mevalonic acid is extracted with ether and the % ^14 C-HMGCoA incorporation determined for concurrent control and test reaction systems. Testing is done (first) with a range finding assay followed by a 4 or 5 point assay to find the IC50 value.
(Microsomes from liver hold many membrane-bound enzymes, among them those of drug oxidation.)

This is an account of results in patent publication US4622338A, “Substituted glutaric acid lactones in the treatment of hyperlipidemia” (G. D. Searle & Co., priority 1985, dated 1986).

For orientation: inhibition means the percentage by which the read-out fell short of the control.

Each structure is given as a SMILES string.

`CCCCCCCCCCCCCC1CC(O)(CC(=O)O)CC(=O)O1` (stereo not drawn) [Example 1, 3-Carboxymethyl-3,5-Dihydroxyoctadecanoic Acid-1,5-Lactone]: the inhibition at 50 µM came to 52%.

For `CC(CCCCCCCCC1CC(O)(CC(=O)O)CC(=O)O1)c1ccccc1` (stereo not drawn) [Example 2, 3-Carboxymethyl-3,5-dihydroxy-14-phenylpentadecanoic acid 1,5-Lactone], the inhibition at 50 µM stood at 57%.

Consider `CC(CCCCCCCCC1CC(O)(CC(=O)O)CC(=O)O1)C1CCCCC1` (stereo not drawn) [Example 3, 3-Carboxymethyl-14-cyclohexyl-3,5-dihydroxypentadecanoic acid 1,5-lactone], for which the inhibition at 75 µM (at 7.5×10^-5 M) was determined as 49%.
